One data set deals with rats. To be noted: cited from earlier work.
In data set [1] the test system is p53 transcriptional activity. Nature of the data set: p53 activity reporter assay (p21 promoter dual luciferase) in H1299 cells. Type of data set: cell-based, human. The protocol: E2F1 activity reporter assay using a p14^ARF promoter-luciferase plasmid was performed as described (Liu et al. 2003). p53 activity reporter assay was performed by a p21^Cip promoter-luciferase plasmid (Liu et al. 2009). p73 activity reporter assay was performed using a pGL3-Bax promoter-luciferase plasmid (Liu et al. 2011). pRL-TK (Renilla luciferase, Promega) was used in all experiments for controlling transfection efficiency. The firefly and Renilla luciferase activities were measured by Dual-Luciferase Reporter System (Promega), and the firefly luciferase activities were normalized against the Renilla activity. All assays were performed in triplicate.

The next data set deals with HEK293 cells. Nature of the data set: Caspase-Glo 3/7 activity assay, HEK293. To be noted: 2.5 μM overnight. It is filed as cell-based, human. The protocol:
(§1) The apoptosis was measured by Caspase-Glo® 3/7 assay (Promega) following the manufacturer's protocol. The cells were plated in 6-well tissue culture dish (10^4 cells/well) (BD Falcon) in respective media. […] The blank reactions were prepared per direction. Equal volume of Caspase-Glo® 3/7 reagents were applied to each well. A luminometer (Sirius) was used to quantitate luminescence.
To prepare TopBP1 knockdown stable cell line, MDA-MB468 cells were infected with lentivirus expressing TopBP1 shRNA (Liu et al. 2011) as well as scramble shRNA, separately. The infected cells were grown for 48 h followed by selection with puromycin (2 μg/ml). After selection, the knockdown was confirmed by Western blotting before further experiments. Two different pLKO-shTopBP1 (#1 and #2) constructs (Open Biosystems, RHS4533-NM_007027) were used to deplete TopBP1 in MDA-MB468 cells. Additional two pSuper-shTopBP1 constructs (Liu et al. 2004) were used to knock down TopBP1 in HEK293 cells. Two pSuper-shE2F1 constructs were used to deplete E2F1: shE2F1#1 (described previously (Liu et al. 2004)), and shE2F1#2 (target sequence 5′-[…]-3′). The target sequence for pSuperior-shE2F1 is the same as pSuper-shE2F1#1. To deplete p63, shp63alpha pLKO.1-puro (from Addgene, 19120) was used. TP73 MISSION shRNA (shp73 pLKO.1-puro) was purchased from Sigma (TRCN00002722587).

In another data set the test system is A549. To be noted: NCI-DTP database; cited from earlier work.
The subject of data set [2] is primary leukemia cells from a patient with T cell acute lymphoblastic leukemia. Nature of the data set: Caspase 3/7 activation assay, primary leukemia cells. It is filed as cell-based. To be noted: 2.5 μM, 7 hours. On the procedure:
as §1

The test system of data set [3] is NCI-H520 lung cancer cells. Nature of the data set: Caspase 3/7 activation assay, NCI-H520. The settings on record: 2.5 or 5 μM, 16 hours. Type of data set: cell-based. On the procedure:
as §1

A further data set relates to MDA-MB468. Nature of the data set: DNA damage signals (pS15-p53, γ-H2AX) in MDA-MB468. Type of data set: cell-based, human. To be noted: up to 10 μM. On the procedure:
(§2) MDA-MB468 cells were lysed with TNN buffer (Liu et al. 2003). An aliquot of cell lysates was lysed with SDS lysis buffer and the rest of cell lysates were incubated with appropriate antibodies or beads at 4° C. for 3-12 h. Anti-FLAG beads (Sigma) were washed three times with TNN buffer. Immunoprecipitates were fractionated by SDS-PAGE and electro-transferred to Immobilon-P membrane (Millipore). Equal amount of protein loading was validated with Ponceau-S staining. The specific signals were detected by incubating with appropriate antibody. All primary antibodies were used at 1:1000 dilution and horseradish peroxidase (HRP)-conjugated secondary antibodies were used at 1:5000 dilution for immunoblotting. E2F1 (C-20 and KH-95), p53 (FL393), p63 (4A4 and H-129), p73 (H-79), p21 (C-19), Bax (N-20), GST (B-14), c-Myc (A14), Miz1 (H-190), Chk1 (G4), Actin (C-2) and GAPDH (6C5) antibodies were purchased from Santa Cruz. TopBP1 (mouse monoclonal) and Aid antibodies were purchased from BD Transduction Laboratories. TopBP1 (BL893, Rabbit polyclonal) antibody was purchased from Bethyl. Mouse monoclonal anti-phospho-γH2AX was purchased from Millipore. Phospho-Chk1 (Ser345) antibody was purchased from Cell signaling. FLAG (F7425) antibody was purchased from Sigma. Mouse monoclonal anti-p73 (IMG-246) was purchased from IMGENEX.

For data set [4], the system named is T47D (PIK3CA mutant H1047R). The settings on record: NCI-60 cell lines database; cited from earlier work.
Data set [5] has as its system TopBP1 oligomerization. Nature of the data set: TopBP1 oligomerization in MDA-MB468 cells (co-IP of tagged TopBP1, DMP cross-linking). It is filed as cell-based, human. The settings on record: 2.5 μM, 5 h. The protocol: as §2, with “IMGENEX. […]” for “IMGENEX.”
Data set [6] deals with T1, TopBP1 oligomerization (Homo sapiens, UniProt Q92547).
T1 construct: endogenous in cells; host or cells: MDA-MB468
T1 sequence (Q92547 whole entry): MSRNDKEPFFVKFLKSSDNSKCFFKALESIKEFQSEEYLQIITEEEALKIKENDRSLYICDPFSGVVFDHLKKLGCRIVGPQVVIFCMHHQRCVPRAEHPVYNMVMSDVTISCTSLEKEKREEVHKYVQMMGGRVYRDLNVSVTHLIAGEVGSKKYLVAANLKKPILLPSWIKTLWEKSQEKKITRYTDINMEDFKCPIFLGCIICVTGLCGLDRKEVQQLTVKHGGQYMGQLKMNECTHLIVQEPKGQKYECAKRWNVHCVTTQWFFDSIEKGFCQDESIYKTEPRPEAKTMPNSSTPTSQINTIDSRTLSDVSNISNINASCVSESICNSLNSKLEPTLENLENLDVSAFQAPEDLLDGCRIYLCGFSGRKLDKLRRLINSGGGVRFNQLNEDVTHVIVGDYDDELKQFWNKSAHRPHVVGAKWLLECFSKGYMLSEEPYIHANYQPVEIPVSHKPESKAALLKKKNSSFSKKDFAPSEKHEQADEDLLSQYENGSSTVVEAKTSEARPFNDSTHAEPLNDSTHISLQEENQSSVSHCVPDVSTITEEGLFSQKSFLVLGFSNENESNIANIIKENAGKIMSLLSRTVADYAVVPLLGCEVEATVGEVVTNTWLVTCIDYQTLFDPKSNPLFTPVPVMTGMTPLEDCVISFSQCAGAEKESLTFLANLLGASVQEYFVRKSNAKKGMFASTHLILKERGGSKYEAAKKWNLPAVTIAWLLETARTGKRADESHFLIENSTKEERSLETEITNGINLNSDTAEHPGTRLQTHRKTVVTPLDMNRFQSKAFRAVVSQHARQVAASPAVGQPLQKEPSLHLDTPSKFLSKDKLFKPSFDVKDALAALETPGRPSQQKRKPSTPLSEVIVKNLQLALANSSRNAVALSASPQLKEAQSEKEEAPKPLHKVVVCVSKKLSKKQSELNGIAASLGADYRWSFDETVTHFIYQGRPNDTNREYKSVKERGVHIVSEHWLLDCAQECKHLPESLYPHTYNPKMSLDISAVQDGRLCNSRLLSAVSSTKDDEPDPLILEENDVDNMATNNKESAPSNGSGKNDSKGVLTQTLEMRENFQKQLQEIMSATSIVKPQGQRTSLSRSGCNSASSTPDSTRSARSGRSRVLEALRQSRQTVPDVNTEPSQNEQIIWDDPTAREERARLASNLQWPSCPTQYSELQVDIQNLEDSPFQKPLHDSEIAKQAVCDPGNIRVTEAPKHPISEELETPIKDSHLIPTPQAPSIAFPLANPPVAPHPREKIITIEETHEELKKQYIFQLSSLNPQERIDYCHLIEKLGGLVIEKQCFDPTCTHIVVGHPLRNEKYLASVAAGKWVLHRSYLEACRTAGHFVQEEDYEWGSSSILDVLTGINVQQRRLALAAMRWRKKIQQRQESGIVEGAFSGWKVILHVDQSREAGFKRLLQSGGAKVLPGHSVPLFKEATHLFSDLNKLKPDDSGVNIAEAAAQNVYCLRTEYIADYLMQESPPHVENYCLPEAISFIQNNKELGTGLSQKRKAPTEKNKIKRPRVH
The data set is described as above. It is filed as cell-based. The settings on record: 2.5 μM, 5 h. The protocol:
as §2, with “IMGENEX. […]” for “IMGENEX.”

The next data set concerns mutp53/p73 interaction. Nature of the data set: Anti-p73 immunoprecipitation in MDA-MB468 cells. It is filed as cell-based, human. The settings on record: 2.5 μM, 5 h. The protocol:
as §2

The test system of the next data set is MDA-MB468 cells. Nature of the data set: MTS assay, MDA-MB468. To be noted: 5 h. Type of data set: cell-based, human. The protocol: Then 50 μl of MTS reagent (CellTiter 96® AQueous One Solution Cell Proliferation Assay, Promega) was added to each well, covered from light and incubated for 1 h at 37.0 incubator to develop purple color. The samples were measured at 490 nm in a plate reader (BioTek Synergy HT) against a blank 48-well plate. Each assay was done in triplicate.
(Tetrazolium assays rely on reduction of a dye to a coloured formazan, in cell work by metabolically active cells.)

The target of another data set is T2, TopBP1/Miz1 interaction (Homo sapiens, UniProt Q92547).
T2 construct: expressed in transfected cells; host or cells: BT549
T2 sequence (Q92547 whole entry): as above
Nature of the data set: Co-immunoprecipitation in BT549 cells, TopBP1/Miz1. Type of data set: cell-based. The settings on record: 2.5 μM, 3 h.

We go through 1 compound from patent publication US9636323B2, “Method of treating cancer that overexpresses TopBP1” (Baylor College of Medicine, priority 2014, dated 2017).

What is called GI50 is the concentration at which growth is held to half of that of the control.

For the compound `CC(=O)OCOC(=O)CN(CC(=O)OCOC(C)=O)Cc1cc2c(cc1OC(C)=O)Oc1cc(OC(C)=O)c(CN(CC(=O)OCOC(C)=O)CC(=O)OCOC(C)=O)cc1C21OC(=O)c2ccccc21` [Calcein AM, Calcein AM (acetoxymethyl ester)], in the data set on rats, the “oral LD50” value was 14500 mg/kg. Moreover, in [1], the p53 transcriptional activity result is “enhanced”. Also, the “apoptosis (caspase 3/7 activity)” value in the data set with HEK293 cells was “induced apoptosis”; in the data set with HEK293 cells (TopBP1-depleted HEK293 cells), “could not induce more apoptosis”. Also, the concentration for 50% growth inhibition (GI50) is under 1 µM with A549 and 1.4 µM in data set [4]. Besides, the “cell killing (caspase 3/7 activation)” value in [2] is listed as “active in killing”. Besides, the “apoptosis (caspase 3/7 activation)” value in data set [3] was “induced apoptosis”. In addition, the “DNA damage (pS15-p53 or γ-H2AX signal)” value in the data set with MDA-MB468 was “did not see evidence of DNA damage”. For the same compound, the “TopBP1 oligomerization, differentially tagged TopBP1” value in the data set with TopBP1 oligomerization [5] is on record as “inhibit TopBP1 oligomerization”. In addition, the “endogenous TopBP1 oligomerization, DMP chemical crosslinking assay” value at TopBP1 oligomerization [6] was “blocked endogenous TopBP1 oligomerization”. Besides, the “binding of p73 to mutp53” value in the data set on mutp53/p73 interaction was “release of p73 from mutp53”. The “doxorubicin sensitivity (MTS)” value with MDA-MB468 cells (TopBP1-depleted cells, 2.5 μM) was “failed to cast the same effect”; with MDA-MB468 cells (co-treated with doxorubicin, Calcein AM 2.5 μM) it was “greatly enhanced the doxorubicin sensitivity”; in the data set with MDA-MB468 cells (shScr control cells, 2.5 μM) it was “sensitized”. Moreover, the “proliferation (MTS)” value in the data set on MDA-MB468 cells (increasing concentrations, versus MCF10A) is given as “preferentially inhibited the proliferation”. Further, the “interaction between TopBP1 and Miz1” value on TopBP1/Miz1 interaction is “inhibited the interaction between TopBP1 and Miz1”.
